Here are results for 31 molecules from patent EP4755881A1 (Wuhan Createrna Science and Technology Co., Ltd., priority 2023, dated 2025).

For orientation: IC50 means the concentration that inhibits the measured activity by half.

Sequence of hLPAR1 (human lysophosphatidic acid receptor 1, Accession No.: NM_001401.4) (Q92633 whole entry): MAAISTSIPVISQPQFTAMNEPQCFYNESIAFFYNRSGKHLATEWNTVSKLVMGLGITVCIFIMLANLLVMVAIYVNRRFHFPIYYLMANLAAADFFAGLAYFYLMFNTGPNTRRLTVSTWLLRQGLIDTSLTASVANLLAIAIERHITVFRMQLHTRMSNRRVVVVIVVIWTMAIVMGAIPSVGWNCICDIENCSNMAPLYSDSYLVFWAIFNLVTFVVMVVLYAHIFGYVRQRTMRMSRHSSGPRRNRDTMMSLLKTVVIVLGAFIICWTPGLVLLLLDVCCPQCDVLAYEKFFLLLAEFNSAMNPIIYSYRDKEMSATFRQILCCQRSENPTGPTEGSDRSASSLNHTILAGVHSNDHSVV

The first test has as its target hLPAR1 (human lysophosphatidic acid receptor 1, Accession No.: NM_001401.4) (Homo sapiens, UniProt Q92633). The test is described as follows: cell-based. The conditions noted are these: LPAR1 inhibitory activity IC50, Table 1; FLIPR method, CHO-K1 cells overexpressing hLPAR1. On the procedure:
The antagonist properties of the compounds in the present disclosure were determined using the FLIPR (Fluorometric Imaging Plate Reader) method in CHO-K1 cells (Chinese Hamster Ovary cells K1, ATCC) overexpressing hLPAR1 (human lysophosphatidic acid receptor 1, Accession No.: NM_001401.4).
CHO-K1 cells stably expressing hLPAR1 were placed in a cell culture incubator at 37°C with 5% CO2 and cultured in F-12 medium containing 10% FBS (fetal bovine serum, Gibco, 10099-141), 1% penicillin-streptomycin (Gibco, 15140-122), and 0.4 mg/mL Hygromycin B (Gibco, 10687010). 18-24 hours before the FLIPR experiment, the cells were seeded into a 96-well plate at a density of 250,000 cells/mL (25,000 cells/well) and incubated overnight in the cell culture incubator. On the day of the experiment, the medium was removed, and the cells were washed with FLIPR buffer (2.5 mM probenecid (Thermo, P36400), 1.3 mM CaCl2, 3.3 mM Na2CO3, 1 mM MgSO4, 20 mM HEPES (Invitrogen, 15630080), 1× HBSS (Invitrogen, 14065056), 0.1% BSA (BioSharp, 70080030)). 75 µL of […] Fluo-4 AM fluorescent dye (Thermo, F14202) was added to each well and incubated for 1.0 hour at 37°C for dye loading. The 96-well plate was then washed once with buffer, and 50 µL of buffer containing the test compound or vehicle was added to each well, followed by incubation at room temperature for 30 min. The cell plate was then placed into the FLIPR for baseline fluorescence measurement (excitation wavelength at 485 nm, emission wavelength at 525 to 535 nm). Subsequently, 50 µL/well of agonist (final concentration 1 µM oleoyl-L-α-lysophosphatidic acid sodium salt (Sigma, L7260)) or vehicle (ultrapure water) was added, and fluorescence values were measured at 1-second intervals for 2 min. Finally, the output fluorescence counts were analyzed using GraphPad Prism 9.0 software log(inhibitor) vs. response--Variable slope (four parameters) equation to calculate IC50 values.
Table 1: Inhibitory activity data of compounds against LPAR1
The molecule `Cc1nc(-c2nnn(C)c2NC(=O)OC(C)C2CC2(F)F)ccc1C#CC1(CC(=O)O)CC1` (stereo not shown) [compound 081] gave an IC50 of 174 nM.

In turn, `CCC[C@@H](C)OC(=O)Nc1c(-c2ccc(C#CC3(CC(=O)O)CCC3)c(C)n2)nnn1C` [compound 325] yielded an IC50 of 40.3 nM. Still for that read-out and setting: under `Cc1nc(-c2nnn(C)c2NC(=O)O[C@H](C)C(C)C)ccc1C#CC1(CC(=O)O)CC1` [compound 310] stands 114 nM.

Still in this test, the particulars now being: Table 1; FLIPR method, CHO-K1 cells overexpressing hLPAR1; read-out: LPAR1 inhibitory activity IC50.
As for `Cc1nc(-c2nnn(C)c2NC(=O)O[C@H](C)c2ccccc2Cl)ccc1C#C[C@@H]1CCCC[C@H]1C(=O)O` (mixture of isomers) [031-A, trans-2-((6-(5-((((R)-1-(2-chlorophenyl)ethoxy)carbonyl)amino)-1-methyl-1H-1,2,3-triazol-4-yl)-2-methylpyridin-3-yl)ethynyl)cyclohexane-1-carboxylic acid], the concentration for half-maximal inhibition (IC50) stood at 0.6 nM. On the same count and under the same terms, with `Cc1nc(-c2nnn(C)c2NC(=O)O[C@H](C)CC(C)(F)F)ccc1C#C[C@@H]1CC(F)(F)C[C@H]1C(=O)O` [compound 247] the figure was 10.2 nM; with `Cc1nc(-c2nnn(C)c2NC(=O)O[C@H](C)C(F)(F)C(C)C)ccc1C#C[C@@H]1CC[C@H]1C(=O)O` [compound 307], 151 nM. Turning to `Cc1nc(-c2nnn(C)c2COC(=O)N(C)CCC(C)(F)F)ccc1C#CC1(CC(=O)O)CC1` [compound 038, 2-(1-((6-(5-((((3,3-difluorobutyl)(methyl)carbamoyl)oxy)methyl)-1-methyl-1H-1,2,3-triazol-4-yl)-2-methylpyridin-3-yl)ethynyl)cyclopropyl)acetic acid], the IC50 came out at 51.1 nM. `Cc1nc(-c2nnn(C)c2NC(=O)OC(C)C2CCCC2)ccc1C#CC1(CC(=O)O)CC1` (stereo not shown) [092', 2-(1-((6-(5-(((1-cyclopentylethoxy)carbonyl)amino)-1-methyl-1H-1,2,3-triazol-4-yl)-2-methylpyridin-3-yl)ethynyl)cyclopropyl)acetic acid]: the IC50 is 18.7 nM.

With `Cc1nc(-c2nnn(C)c2COc2nccc(C3CCC3)n2)ccc1C#CC1(CC(=O)O)CC1` [compound 194], the IC50 was 42.5 nM.

Regarding `Cc1nc(-c2nnn(C)c2NC(=O)O[C@H](C)c2ccccc2)ccc1C#CC1(CC(=O)O)CC1` [compound 022, (R)-2-(1-((2-methyl-6-(1-methyl-5-(((1-phenylethoxy)carbonyl)amino)-1H-1,2,3-triazol-4-yl)pyridin-3-yl)ethynyl)cyclopropyl)acetic acid], the IC50 was determined as 9.5 nM. Turning to `Cc1nc(-c2nnn(C)c2NC(=O)O[C@H](C)c2ccccc2)ccc1C#C[C@@H]1CCCC[C@H]1C(=O)O` (mixture of isomers) [027-B, trans-2-((2-methyl-6-(1-methyl-5-((((R)-1-phenylethoxy)carbonyl)amino)-1H-1,2,3-triazol-4-yl)pyridin-3-yl)ethynyl)cyclohexane-1-carboxylic acid], the IC50 came out at 49.2 nM.

Take `CCCCN(C)C(=O)OCc1c(-c2ccc(C#CC3(CC(=O)O)CC3)c(CC)n2)nnn1C` [compound 100]: the IC50 was 44.3 nM. Regarding `Cc1nc(-n2nnc(C)c2NC(=O)O[C@H](C)c2ccccc2Cl)ccc1C#CC1(CC(=O)O)CC1` [compound 006, (R)-2-(1-((6-(5-(((1-(2-chlorophenyl)ethoxy)carbonyl)amino)-4-methyl-1H-1,2,3-triazol-1-yl)-2-methylpyridin-3-yl)ethynyl)cyclopropyl)acetic acid], the IC50 was determined as 42 nM. Regarding `CCCCN(C)C(=O)OCc1c(-c2ccc(C#C[C@@H]3CC(F)(F)C[C@H]3C(=O)O)c(C)n2)nnn1C` (racemic) [compound 252], the IC50 is 30.2 nM. Regarding `CCC(F)(F)[C@@H](C)OC(=O)Nc1c(-c2ccc(C#C[C@@H]3CC[C@H]3C(=O)O)c(C)n2)nnn1C` (mixture of isomers) [212-A, trans-2-((6-(5-(((((R)-3,3-difluoropentan-2-yl)oxy)carbonyl)amino)-1-methyl-1H-1,2,3-triazol-4-yl)-2-methylpyridin-3-yl)ethynyl)cyclobutane-1-carboxylic acid], the IC50 is 42.1 nM.

On to `CCCCN(C)C(=O)OCc1c(-c2ccc(C#CC3(CC(=O)O)CC3)c(C)n2)nnn1C` [compound 004, 2-(1-((6-(5-(((butyl(methyl)carbamoyl)oxy)methyl)-1-methyl-1H-1,2,3-triazol-4-yl)-2-methylpyridin-3-yl)ethynyl)cyclopropyl)acetic acid], for which the IC50 came to 66.3 nM. Turning to `Cc1nc(-c2nnn(C)c2COC(=O)N(C)CCCCF)ccc1C#CC1(CC(=O)O)CC1` [compound 034, 2-(1-((6-(5-((((4-fluorobutyl)(methyl)carbamoyl)oxy)methyl)-1-methyl-1H-1,2,3-triazol-4-yl)-2-methylpyridin-3-yl)ethynyl)cyclopropyl)acetic acid], the IC50 stood at 52.7 nM. With `Cc1nc(-c2nnn(C)c2NC(=O)OC(C)C2CCC2)ccc1C#CC1CC(F)(F)CC1C(=O)O` (stereo not shown) [242-A], the IC50 is 7 nM. `Cc1nc(-c2nnn(C)c2NC(=O)OC(C)c2cc(F)cnc2Cl)ccc1C#CC1(CC(=O)O)CC1` (stereo not shown) [compound 023, 2-(1-((6-(5-(((1-(2-chloro-5-fluoropyridin-3-yl)ethoxy)carbonyl)amino)-1-methyl-1H-1,2,3-triazol-4-yl)-2-methylpyridin-3-yl)ethynyl)cyclopropyl)acetic acid]: the IC50 is 45.2 nM.

As for `Cc1nc(-c2nnn(C)c2COC(=O)N(C)CCC(C)F)ccc1C#CC1(CC(=O)O)CC1` (stereo not shown) [compound 037, 2-(1-((6-(5-((((3-fluorobutyl)(methyl)carbamoyl)oxy)methyl)-1-methyl-1H-1,2,3-triazol-4-yl)-2-methylpyridin-3-yl)ethynyl)cyclopropyl)acetic acid], the IC50 is 105 nM. On to `CCC(F)CN(C)C(=O)OCc1c(-c2ccc(C#CC3(CC(=O)O)CC3)c(C)n2)nnn1C` (stereo not shown) [compound 036, 2-(1-((6-(5-((((2-fluorobutyl)(methyl)carbamoyl)oxy)methyl)-1-methyl-1H-1,2,3-triazol-4-yl)-2-methylpyridin-3-yl)ethynyl)cyclopropyl)acetic acid], for which the IC50 was 103 nM.

For the molecule `Cc1nc(-c2nnn(C)c2COC(=O)N(C)CC2CC2(F)F)ccc1C#CC1(CC(=O)O)CC1` (stereo not shown) [compound 068], the half-inhibitory concentration (IC50) is 129 nM. As to `Cc1nc(-c2nnn(C)c2COC(=O)N(C)CC2CCC2(F)F)ccc1C#CC1(CC(=O)O)CC1` (stereo not shown) [compound 026, 2-(1-((6-(5-(((((2,2-difluorocyclobutyl)methyl)(methyl)carbamoyl)oxy)methyl)-1-methyl-1H-1,2,3-triazol-4-yl)-2-methylpyridin-3-yl)ethynyl)cyclopropyl)acetic acid], the IC50 was 52.7 nM. As to `CCCC(C)OC(=O)Nc1c(-c2ccc(C#CC3(CC(=O)O)CC3)c(C)n2)nnn1C` (stereo not shown) [compound 010, 2-(1-((2-methyl-6-(1-methyl-5-(((pentan-2-yloxy)carbonyl)amino)-1H-1,2,3-triazol-4-yl)pyridin-3-yl)ethynyl)cyclopropyl)acetic acid], the IC50 worked out at 56.2 nM. As for `CCC(F)(F)C[C@@H](C)OC(=O)Nc1c(-c2ccc(C#CC3(CC(=O)O)CC3)c(C)n2)nnn1C` [compound 264], the IC50 came to 47.3 nM.

For the molecule `Cc1nc(-c2nnn(C)c2COC(=O)N(C)[C@H](C)C2CC2)ccc1C#CC1(CC(=O)O)CC1` [compound 030, (R)-2-(1-((6-(5-((((1-cyclopropylethyl)(methyl)carbamoyl)oxy)methyl)-1-methyl-1H-1,2,3-triazol-4-yl)-2-methylpyridin-3-yl)ethynyl)cyclopropyl)acetic acid], the IC50 worked out at 33.6 nM.

For the molecule `Cc1nc(-c2nnn(C)c2NC(=O)OC(C)C2CCC2)ccc1C#CC1(CC(=O)O)CC1` (stereo not shown) [032-A, 2-(1-((6-(5-(((1-cyclobutylethoxy)carbonyl)amino)-1-methyl-1H-1,2,3-triazol-4-yl)-2-methylpyridin-3-yl)ethynyl)cyclopropyl)acetic acid], the IC50 is 0.6 nM.

Take `Cc1nc(-c2nnn(C)c2NC(=O)OC(C)CC(C)(C)F)ccc1C#CC1CCC1C(=O)O` (single isomer, unassigned) [306-B]: the IC50 stood at 53.6 nM. Consider `Cc1nc(-c2nnn(C)c2COC(=O)N(C)C2CCCC2)ccc1C#CC1(CC(=O)O)CC1` [compound 018, 2-(1-((6-(5-(((cyclopentyl(methyl)carbamoyl)oxy)methyl)-1-methyl-1H-1,2,3-triazol-4-yl)-2-methylpyridin-3-yl)ethynyl)cyclopropyl)acetic acid], for which the IC50 is 55.2 nM. On the same count and under the same terms, under `Cc1nc(-c2nnn(C)c2COC(=O)N(C)CC2CC2C)ccc1C#CC1(CC(=O)O)CC1` (stereo not shown) [compound 073] stands 79.1 nM.

The same test, now with this note: read-out: LPAR1 inhibitory activity IC50; Table 1; FLIPR method, CHO-K1 cells overexpressing hLPAR1.
Turning to `Cc1nc(-c2nnn(C)c2COC(=O)N(C)CC2CCC2)ccc1C#CC1(CC(=O)O)CC1` [compound 017], the IC50 turned out to be 42.8 nM.
